Reference: USRE47302E1 (ONYX THERAPEUTICS INC., priority 2013, dated 2019)
Converted amounts (≈) assume the structure as drawn.

Tests used:
[1] = target: human constitutive 20S proteasome (c20S) (Homo sapiens, UniProt P28074); assay: 20S proteasome assay, chymotrypsin-like activity (succinyl-Leu-Leu-Val-Tyr-AMC), c20S; format: biochemical; conditions: LLVY substrate, 1 h continuous
Text: (§1) Assay buffer consisted of TE buffer [20 mmol/L Tris (pH 8.0), 0.5 mmol/L EDTA] with (20S) or without (cell lysate) 0.03% SDS. Reactions were initiated by enzyme or lysate addition and monitored for AMC product formation at 27jC with a plate-based spectofluorometer (Tecan).

[2] = target: human 20S immunoproteasome (i20S) (Homo sapiens, UniProt P28062); assay: 20S proteasome assay, chymotrypsin-like activity (succinyl-Leu-Leu-Val-Tyr-AMC), i20S; format: biochemical; conditions: LLVY substrate, 1 h continuous
Text: as §1

[3] = target: T1, proteasome subunit β5 (beta5) (Homo sapiens, UniProt P28074); assay: Proteasome active-site ELISA (ProCISE), beta5, MOLT-4 lysate; format: biochemical; conditions: MOLT4 lysate, human, 1 h continuous treatment, 25° C.
T1 construct: Lysate from the human acute lymphoblastic leukemia cell line, MOLT-4; endogenous in cells; host or cells: MOLT-4
In short: (§2)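 MOLT-4 cell lysate treated 1 h at 25 °C with compound; probe-bound subunits denatured, pulled down on streptavidin beads and detected with subunit-specific antibodies plus HRP chemiluminescence.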

Solubility pH 7 = conditions: pH 7, aqueous buffer
[4] = target: T2, immunoproteasome subunit LMP7 (Homo sapiens, UniProt P28062); assay: Proteasome active-site ELISA (ProCISE), LMP7, MOLT-4 lysate; format: biochemical; conditions: MOLT4 lysate, 1 h continuous treatment, 25° C.
T2 construct: Lysate from the human acute lymphoblastic leukemia cell line, MOLT-4; endogenous in cells; host or cells: MOLT-4
In short: as §2

physchem = conditions: pH 7, aqueous buffer

SMILES	IC50 [1] [nM]	IC50 [2] [nM]	IC50 [3] [nM]	solubility (Solubility pH 7) [µg/mL]	IC50 [4] [nM]	solubility (physchem) [µg/mL]
COc1ccc(C[C@H](NC(=O)[C@@H](C)NC(=O)[C@@H]2CCCOC2)C(=O)N[C@@H](CC2CCCC2)C(=O)[C@@]2(C)CO2)cc1 [Compound C-1052, (R)-N-((R)-1-(((S)-1-(((S)-3-cyclopentyl-1-((R)-2-methyloxiran-2-yl)-1-oxopropan-2-yl)amino)-3-(4-methoxyphenyl)-1-oxopropan-2-yl)amino)-1-oxopropan-2-yl)tetrahydro-2H-pyran-3-carboxamide]	515	44.5	512	706 (≈ 1270 µM)	101	
COc1ccc(C[C@H](NC(=O)[C@@H](C)NC(=O)[C@H]2CCCOC2)C(=O)N[C@@H](CC2CCCC2)C(=O)[C@@]2(C)CO2)cc1 [Compound C-1053, (S)-N-((R)-1-(((S)-1-(((S)-3-cyclopentyl-1-((R)-2-methyloxiran-2-yl)-1-oxopropan-2-yl)amino)-3-(4-methoxyphenyl)-1-oxopropan-2-yl)amino)-1-oxopropan-2-yl)tetrahydro-2H-pyran-3-carboxamide]	3770	98.9	4540	648 (≈ 1160 µM)	270	
C[C@H](NC(=O)CN1CCOCC1)C(=O)N[C@@H](Cc1ccc(S(N)(=O)=O)cc1)C(=O)N[C@@H](CC1CCCC1)C(=O)[C@@]1(C)CO1 [Compound C-1054, (S)-N-((S)-3-cyclopentyl-1-((R)-2-methyloxiran-2-yl)-1-oxopropan-2-yl)-2-((S)-2-(2-morpholinoacetamido)propanamido)-3-(4-sulfamoylphenyl)propanamide]	667	76.5	805	2860 (≈ 4600 µM)	131	
COc1ccc(C[C@H](NC(=O)[C@@H](C)NC(=O)C2COC2)C(=O)N[C@@H](CC2=CCCC2)C(=O)[C@@]2(C)CO2)cc1 [Compound C-1055, N-((R)-1-(((S)-1-(((S)-3-(cyclopent-1-en-1-yl)-1-((R)-2-methyloxiran-2-yl)-1-oxopropan-2-yl)amino)-3-(4-methoxyphenyl)-1-oxopropan-2-yl)amino)-1-oxopropan-2-yl)oxetane-3-carboxamide]	4440	149	7150	1300 (≈ 2460 µM)	953	
COc1ccc(C[C@H](NC(=O)[C@@H](C)NC(=O)[C@H]2CC[C@@H](O)CC2)C(=O)N[C@@H](CC2=CCCC2)C(=O)[C@@]2(C)CO2)cc1 [Compound C-1056, (1s,4S)-N-((R)-1-(((S)-1-(((S)-3-(cyclopent-1-en-1-yl)-1-((R)-2-methyloxiran-2-yl)-1-oxopropan-2-yl)amino)-3-(4-methoxyphenyl)-1-oxopropan-2-yl)amino)-1-oxopropan-2-yl)-4-hydroxycyclohexanecarboxamide]	46.8	4.7	17.4	298 (≈ 523 µM)	2.72	
COc1ccc(C[C@H](NC(=O)[C@@H](C)NC(=O)[C@H]2CC[C@H](O)CC2)C(=O)N[C@@H](CC2=CCCC2)C(=O)[C@@]2(C)CO2)cc1 [Compound C-1057, (1r,4R)-N-((R)-1-(((S)-1-(((S)-3-(cyclopent-1-en-1-yl)-1-((R)-2-methyloxiran-2-yl)-1-oxopropan-2-yl)amino)-3-(4-methoxyphenyl)-1-oxopropan-2-yl)amino)-1-oxopropan-2-yl)-4-hydroxycyclohexanecarboxamide]	595	5.3	2550	491 (≈ 862 µM)	34	
COc1ccc(C[C@H](NC(=O)[C@@H](C)NC(=O)C2CCOCC2)C(=O)N[C@@H](CC2CCCC2)C(=O)[C@@]2(C)CO2)cc1O [Compound C-1061, N-((R)-1-(((S)-1-(((S)-3-cyclopentyl-1-((R)-2-methyloxiran-2-yl)-1-oxopropan-2-yl)amino)-3-(3-hydroxy-4-methoxyphenyl)-1-oxopropan-2-yl)amino)-1-oxopropan-2-yl)tetrahydro-2H-pyran-4-carboxamide]	756	15.4	978	2050 (≈ 3580 µM)	70.8	
COc1ccc(C[C@H](NC(=O)[C@@H](C)NC(=O)C2CCOCC2)C(=O)N[C@@H](CC2=CCCC2)C(=O)[C@@]2(C)CO2)cc1O [Compound C-1062, N-((R)-1-(((S)-1-(((S)-3-(cyclopent-1-en-1-yl)-1-((R)-2-methyloxiran-2-yl)-1-oxopropan-2-yl)amino)-3-(3-hydroxy-4-methoxyphenyl)-1-oxopropan-2-yl)amino)-1-oxopropan-2-yl)tetrahydro-2H-pyran-4-carboxamide]	232	20.2	388	140 (≈ 245 µM)	38.4	
COc1ccc(C[C@H](NC(=O)[C@@H](C)NC(=O)C2CC3(COC3)C2)C(=O)N[C@@H](CC2=CCCC2)C(=O)[C@@]2(C)CO2)cc1 [Compound C-1063, N-((R)-1-(((S)-1-(((S)-3-(cyclopent-1-en-1-yl)-1-((R)-2-methyloxiran-2-yl)-1-oxopropan-2-yl)amino)-3-(4-methoxyphenyl)-1-oxopropan-2-yl)amino)-1-oxopropan-2-yl)-2-oxaspiro[3.3]heptane-6-carboxamide]	169	14.9	443	1310 (≈ 2310 µM)	90.7	
COc1ccc(C[C@H](NC(=O)CNC(=O)CN2CCOCC2)C(=O)N[C@@H](Cc2ccccc2)C(=O)[C@@]2(C)CO2)cc1 [Compound C-1153, (S)-3-(4-methoxyphenyl)-N-((S)-1-((R)-2-methyloxiran-2-yl)-1-oxo-3-phenylpropan-2-yl)-2-(2-(2-morpholinoacetamido)acetamido)propanamide]	2430	278	4170	3270 (≈ 5780 µM)	208	
COc1ccc(C[C@H](NC(=O)[C@H](CO)NC(=O)CN2CCOCC2)C(=O)N[C@@H](Cc2ccccc2)C(=O)[C@@]2(C)CO2)cc1 [Compound C-1159, (S)-3-hydroxy-N-((S)-3-(4-methoxyphenyl)-1-(((S)-1-((R)-2-methyloxiran-2-yl)-1-oxo-3-phenylpropan-2-yl)amino)-1-oxopropan-2-yl)-2-(2-morpholinoacetamido)propanamide]	473	43	454	1910 (≈ 3210 µM)	43.1	
COc1ccc(C[C@H](NC(=O)[C@H](C)NC(=O)CN2CCOCC2)C(=O)N[C@@H](Cc2ccccc2)C(=O)[C@@]2(C)CO2)cc1OC [Compound C-1160, (S)-3-(3,4-dimethoxyphenyl)-N-((S)-1-((R)-2-methyloxiran-2-yl)-1-oxo-3-phenylpropan-2-yl)-2-((S)-2-(2-morpholinoacetamido)propanamido)propanamide]	909	246	660	1530 (≈ 2500 µM)	157	
C[C@H](NC(=O)CN1CCOCC1)C(=O)N[C@@H](Cc1ccc(N(C)C)cc1)C(=O)N[C@@H](Cc1ccccc1)C(=O)[C@@]1(C)CO1 [Compound C-1161, (S)-3-(4-(dimethylamino)phenyl)-N-((S)-1-((R)-2-methyloxiran-2-yl)-1-oxo-3-phenylpropan-2-yl)-2-((S)-2-(2-morpholinoacetamido)propanamido)propanamide]	807	146	409	2110 (≈ 3560 µM)	51.2	
COc1ccc(C[C@H](NC(=O)[C@H](C)NC(=O)CN2CCOCC2)C(=O)N[C@@H](Cc2ccc(O)cc2)C(=O)[C@@]2(C)CO2)cc1 [Compound C-1162, (S)-N-((S)-3-(4-hydroxyphenyl)-1-((R)-2-methyloxiran-2-yl)-1-oxopropan-2-yl)-3-(4-methoxyphenyl)-2-((S)-2-(2-morpholinoacetamido)propanamido)propanamide]	1610	27.9	595	1270 (≈ 2130 µM)	43.4	
COc1ccc(C[C@H](NC(=O)[C@@H](NC(=O)CN2CCOCC2)[C@H](C)O)C(=O)N[C@@H](Cc2ccccc2)C(=O)[C@@]2(C)CO2)cc1 [Compound C-1174]	161	23	150	1780 (≈ 2920 µM)	22.9	
COc1ccc(C[C@H](NC(=O)[C@H](C)NC(=O)CN2CC3CC(C2)O3)C(=O)N[C@@H](CC2CCCC2)C(=O)[C@@]2(C)CO2)cc1 [Compound C-1229, (2S)-2-((2S)-2-(2-(6-oxa-3-azabicyclo[3.1.1]heptan-3-yl)acetamido)propanamido)-N-((S)-3-cyclopentyl-1-((R)-2-methyloxiran-2-yl)-1-oxopropan-2-yl)-3-(4-methoxyphenyl)propanamide]						3620 (≈ 6200 µM)
